Data set [1] deals with T1, human Endothelial Differentiation G-protein Coupled Receptor 3 (EDG3) (Homo sapiens, UniProt Q99500).
T1 construct: expressed in transfected cells; host or cells: GeneBLAzer Ga15-NFAT-bla HEK 293T cell line
The experiment in a line: S1P3 GeneBlazer assay. The conditions noted are these: EDG3-Ga15-NFAT-bla HEK 293T cells. In kind it is cell-based. The procedure: GeneBLAzer EDG3-Ga15-NFAT-bla HEK 293T cells (contain the human Endothelial Differentiation G-protein Coupled Receptor 3 (EDG3) and a beta-lactamase reporter gene under control of a NFAT response element and a promiscuous G Protein, Ga15, stably integrated into the GeneBLAzer Ga15-NFAT-bla HEK 293T cell line) were suspended in assay medium (99% DMEM, 1% Dialyzed FBS, 0.1 mM NEAA, 25 mM HEPES (pH 7.3), 100 U/ml penicillin, 100 μg/ml streptomycin) at a density of 312, 500 cells/ml. Add 100 μl/well of the assay medium to the cell-free control wells (column 12) and 100 μl/well of the cell suspension to the test compound wells (row 2-8, column 1-10), the unstimulated control wells (DMSO) (column 11), and stimulated control wells (S1P) (row 1, column 1-10) in a Corning black-well, clear bottom 96-well plate. Cells were incubated at 37° C., 5% CO2 for 24 h. […]
After incubation at 37° C., 5% CO2 for 5 h, 25 μl of 6× substrate mixture (6 μl Solution A (1 mg LiveBLAzer™-FRET B/G Substrate (CCF4-AM) in 912 μl DMSO) plus 60 μl Solution B plus 934 μl Solution C) was added to each well and incubate at room temperature for 2 h in dark. The plate was finally read on EnVision for two emission channels (460 nm and 530 nm). […]

The target of data set [2] is T2, human Endothelial Differentiation Gene 1 (EDG1) (Homo sapiens, UniProt P21453).
T2 construct: TEV protease cleavage site; Gal4-VP16 transcription factor (printed Ga14-VP16); expressed in transfected cells; host or cells: Tango GPCR-bla U2OS parental cell line (EDG1-bla/U2OS)
T2 sequence (P21453 whole entry, the tested form may be a part): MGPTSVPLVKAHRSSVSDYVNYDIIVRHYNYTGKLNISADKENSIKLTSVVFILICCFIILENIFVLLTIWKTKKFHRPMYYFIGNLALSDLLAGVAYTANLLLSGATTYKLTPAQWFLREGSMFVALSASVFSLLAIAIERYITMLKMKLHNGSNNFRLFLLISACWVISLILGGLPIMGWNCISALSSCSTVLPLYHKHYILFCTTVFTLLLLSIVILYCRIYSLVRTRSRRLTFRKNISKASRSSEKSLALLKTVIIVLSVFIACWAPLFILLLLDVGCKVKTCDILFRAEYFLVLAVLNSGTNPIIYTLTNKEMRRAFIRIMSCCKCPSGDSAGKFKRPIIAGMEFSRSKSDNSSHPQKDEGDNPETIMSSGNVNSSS
The experiment in a line: S1P1 Tango assay, 384 well format. Conditions: EDG1-bla/U2OS cells. In kind it is cell-based. The protocol: S1P1 Tango Assay—384 Well Format
Recombinant EDG1-bla/U2OS cells (contain the human Endothelial Differentiation Gene 1 (EDG1) linked to a TEV protease site and a Ga14-VP16 transcription factor stably integrated into the Tango GPCR-bla U20S parental cell line) were harvested from growth medium and passaged into assay medium (Invitrogen Freestyle Expression Medium). The cells were starved for 24 hours at 37° C., 5% CO2, harvested and resuspended in assay medium at a density of ˜200,000 cells/ml. All test compounds were dissolved in DMSO at a concentration of 10 mM and were prepared in 100% DMSO to provide 10 point dose response curves. Test compounds prepared by Bravo (Velocity11) were added to wells in columns 2-11 and 13-22; DMSO was added to wells in columns 12 and 23 as unstimulated controls and assay medium was added to wells in columns 1 and 24 as cell-free controls. […]
10 μl of 6× substrate mixture (LiveBLAzer™-FRET B/G substrate (CCF4-AM) Cat # K1096 from Invitrogen, Inc.) was added to each well using Bravo and the plates incubated at room temperature for 2 h in the dark. The plate was finally read on EnVision using one excitation channel (409 nm) and two emission channels (460 nm and 530 nm).
The blue/green emission ratio (460 nm/530 nm) was calculated for each well, by dividing the background-subtracted Blue emission values by the background-subtracted Green emission values. […]

Data set [3] relates to circulating lymphocytes. Conditions: animals and man; cited from earlier work.
For data set [4] the following is noted: clinical studies, first 24 hours of treatment; cited from earlier work.

Each structure is given as a SMILES string. Some results are limits rather than exact numbers.

T1 sequence (Q99500 whole entry): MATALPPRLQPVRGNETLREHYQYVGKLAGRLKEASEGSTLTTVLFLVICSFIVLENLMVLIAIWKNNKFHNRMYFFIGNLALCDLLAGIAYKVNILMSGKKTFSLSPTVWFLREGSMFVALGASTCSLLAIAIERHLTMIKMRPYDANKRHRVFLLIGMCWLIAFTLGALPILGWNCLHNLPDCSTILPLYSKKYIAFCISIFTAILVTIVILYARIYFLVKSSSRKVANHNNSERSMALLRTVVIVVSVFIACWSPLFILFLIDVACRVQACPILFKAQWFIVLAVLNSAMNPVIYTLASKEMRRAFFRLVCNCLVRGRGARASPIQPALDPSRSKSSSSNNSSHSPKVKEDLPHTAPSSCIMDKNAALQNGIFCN

`CCc1c(-c2nnc(-c3ccc(OC(C)C)c(C#N)c3)s2)ccc2c1CCN(C(CO)CO)C2` [Example 205, 5-(5-{5-ethyl-2-[2-hydroxy-1-(hydroxymethyl)ethyl]-1,2,3,4-tetrahydro-6-isoquinolinyl}-1,3,4-thiadiazol-2-yl)-2-[(1-methylethyl)oxy]benzonitrile]: the figures for the EC50 in data set [1] and in data set [2] were over 10 µM and under 0.1 µM, respectively.

Take `CCc1c(-c2cnc(-c3ccc(OC(C)C)c(C#N)c3)s2)ccc2c1CCN(C(CO)CO)C2` [Example 204, 5-(5-{5-ethyl-2-[2-hydroxy-1-(hydroxymethyl)ethyl]-1,2,3,4-tetrahydro-6-isoquinolinyl}-1,3-thiazol-2-yl)-2-[(1-methylethyl)oxy]benzonitrile]: the figures for the EC50 in data set [1] and in data set [2] were over 10 µM and under 1 µM, respectively.

As for `CCCCCCCCc1ccc(CCC(N)(CO)CO)cc1` [FTY720], the circulating lymphocytes entry in data set [3] is “reduce circulating lymphocytes in animals and man”. Moreover, the bradycardia result in data set [4] is recorded as “bradycardia in the first 24 hours of treatment”.

These data come from US20120101083A1, “S1P1 AGONISTS COMPRISING A BICYCLIC N-CONTAINING RING” (GLAXO GROUP LIMITED, priority 2009, published 2012).
